Experimental data reported in ChEMBL document CHEMBL4834409 (J Med Chem, 2021).
The source made the active and inactive calls. No cut-off for these calls is given here.

Tests used:
[1] = molecular target: T1, Melatonin receptor type 1A (Homo sapiens, UniProt P48039); experiment: Displacement of 2-[125l]-lodomelatonin from human MT1 expressed in CHO cell membrane incubated for 150 mins by radioligand binding assay; type: cell membranes
[2] = molecular target: T2, Melatonin receptor type 1B (Homo sapiens, UniProt P49286); experiment: Displacement of 2-[125l]-lodomelatonin from human MT2 expressed in CHO cell membrane incubated for 150 mins by radioligand binding assay; type: cell membranes
T2 sequence (P49286 whole entry): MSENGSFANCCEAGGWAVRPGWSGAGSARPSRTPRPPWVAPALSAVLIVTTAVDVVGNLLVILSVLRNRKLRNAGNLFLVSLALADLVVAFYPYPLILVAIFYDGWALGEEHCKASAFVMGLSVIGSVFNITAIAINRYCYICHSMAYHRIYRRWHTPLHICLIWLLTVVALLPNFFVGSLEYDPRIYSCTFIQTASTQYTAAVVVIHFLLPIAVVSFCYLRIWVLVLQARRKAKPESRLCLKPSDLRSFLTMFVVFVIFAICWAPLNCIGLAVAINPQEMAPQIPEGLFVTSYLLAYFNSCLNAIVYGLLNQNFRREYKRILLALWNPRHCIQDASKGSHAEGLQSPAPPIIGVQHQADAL

[3] = Clearance in human hepatic microsomes at 1 umol/L incubated for 20 mins in presence of NADPH generating system by HPLC-UV analysis; type: ADME, Microsome; settings: liver microsomes, dose 1 µmol/L, read-out: CLH
[4] = Clearance in rat hepatic microsomes at 1 umol/L incubated for 20 mins in presence of NADPH generating system by HPLC-UV analysis; type: ADME, Microsome; settings: liver microsomes, dose 1 µmol/L, read-out: CLH
[5] = Oral bioavailability in Sprague-Dawley rat at 1 mg/kg administered as casette dosing by LC/MS/MS analysis; type: ADME, organism-based; settings: in vivo
[6] = molecular target: T3, Melatonin receptor type 1B (Homo sapiens) (UniProt P49286); experiment: Displacement of 2-[125l]-lodomelatonin from human MT2 expressed in CHO cell membrane at 100 nM incubated for 150 mins by radioligand binding assay relative to control; type: cell membranes
T3 sequence (whole entry): T2 sequence (P49286 whole entry)

[7] = molecular target: T1, Melatonin receptor type 1A; experiment: Binding affinity to human MT1 expressed in CHO cells; type: cell-based
[8] = molecular target: T2, Melatonin receptor type 1B; experiment: Binding affinity to human MT2 expressed in CHO cells; type: cell-based
[9] = Oral bioavailability in Sprague-Dawley rat at 1 mg/kg by LC/MS/MS analysis; type: ADME, organism-based; settings: in vivo
[10] = Drug concentration in Sprague-Dawley rat brain at 1 mg/kg, po after 60 mins by LC/MS/MS analysis; type: ADME, organism-based; settings: read-out: Ct
[11] = Drug concentration in Sprague-Dawley rat plasma at 1 mg/kg, po after 60 mins by LC/MS/MS analysis; type: ADME, organism-based
[12] = Ratio of drug concentration in brain to plasma in Sprague-Dawley rat at 1 mg/kg, po after 60 mins by LC/MS/MS analysis; type: ADME, organism-based; settings: read-out: BPR
[13] = molecular target: T1, Melatonin receptor type 1A; experiment: Displacement of 2-[125l]-lodomelatonin from human MT1 expressed in CHO cell membrane at 100 nM incubated for 150 mins by radioligand binding assay relative to control; type: cell membranes
[14] = Drug concentration in Sprague-Dawley rat brain at 0.1 mg/kg, po after 60 mins by LC/MS/MS analysis; type: ADME, organism-based; settings: read-out: Ct
[15] = Drug concentration in Sprague-Dawley rat plasma at 0.1 mg/kg, po after 60 mins by LC/MS/MS analysis; type: ADME, organism-based
[16] = Ratio of drug concentration in brain to plasma in Sprague-Dawley rat at 0.1 mg/kg, po after 60 mins by LC/MS/MS analysis; type: ADME, organism-based; settings: read-out: BPR
[17] = molecular target: T1, Melatonin receptor type 1A; experiment: Agonist activity at human MT1 expressed in CHO-K1 cells assessed as inhibition of forskolin-induced cAMP accumulation incubated for 30 mins by AlphaScreen assay; type: functional, cell-based
[18] = molecular target: T2, Melatonin receptor type 1B; experiment: Agonist activity at human MT2 expressed in CHO-K1 cells assessed as inhibition of forskolin-induced cAMP accumulation incubated for 30 mins by AlphaScreen assay; type: functional, cell-based
Felis catus = experiment: Hypnotic activity in cats assessed as increase in total sleep time at 10 mg/kg, po after 8 hrs by EEG analysis; type: functional, organism-based

T1 sequence (P48039 whole entry): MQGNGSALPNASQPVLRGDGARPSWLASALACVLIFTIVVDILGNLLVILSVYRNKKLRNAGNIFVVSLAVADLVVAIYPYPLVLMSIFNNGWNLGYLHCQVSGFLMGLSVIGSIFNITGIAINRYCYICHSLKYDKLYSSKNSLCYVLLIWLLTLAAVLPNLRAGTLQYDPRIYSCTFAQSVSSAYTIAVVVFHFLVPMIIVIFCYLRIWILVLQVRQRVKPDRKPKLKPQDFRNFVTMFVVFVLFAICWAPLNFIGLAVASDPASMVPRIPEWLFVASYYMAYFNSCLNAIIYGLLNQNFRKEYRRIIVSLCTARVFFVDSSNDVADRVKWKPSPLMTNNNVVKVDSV

Question: What does the source list for `CC(=O)NCCC1CCc2ccc3nn(C)cc3c21` (centres undefined)?
Answer: Ki [1]: 0.35 nM; Ki [2]: 0.75 nM; microsomal CLint at 1 µM [3]: 5 µL/min/mg; microsomal CLint at 1 µM [4]: 44 µL/min/mg; bioavailability [5]: 20.9%

Question: For `CCC(=O)NCCC1CCc2ccc3nc(C)sc3c21` (centres undefined), which Ki [1] is on record?
Answer: The Ki was 0.027 nM.

Question: What about the Ki [2] of the same compound?
Answer: Its Ki is 0.058 nM.

Question: What about the microsomal CLint at 1 µM [3] of the same compound?
Answer: Its microsomal CLint at 1 µM is 41 µL/min/mg.

Question: And the microsomal CLint at 1 µM [4]?
Answer: The microsomal CLint at 1 µM was 379 µL/min/mg.

Question: What about the bioavailability [5] of the same compound?
Answer: Its bioavailability is 3.2%.

Question: For `CC(=O)NCCC1CCc2ccc3nc(CO)oc3c21` (centres undefined), which Ki [1] is on record?
Answer: The Ki was 1.2 nM.

Question: And the Ki [2]?
Answer: The Ki was 1.1 nM.

Question: For `CC(=O)NCCC1CCc2ccc3nc(C)sc3c21` (centres undefined), which Ki [1] is on record?
Answer: Its Ki is 0.037 nM.

Question: And the Ki [2]?
Answer: Its Ki is 0.086 nM.

Question: What about the microsomal CLint at 1 µM [3] of the same compound?
Answer: Its microsomal CLint at 1 µM is 45 µL/min/mg.

Question: And the microsomal CLint at 1 µM [4]?
Answer: Its microsomal CLint at 1 µM is 188 µL/min/mg.

Question: What about the bioavailability [5] of the same compound?
Answer: Its bioavailability is 4.8%.

Question: With `CC(=O)NCCC1CCc2ccc3nc(C4CC4)oc3c21` (centres undefined) as the compound, how does the Ki [1] read?
Answer: Its Ki is 0.39 nM.

Question: And the Ki [2]?
Answer: Its Ki is 0.15 nM.

Question: What does the source list for `CC(=O)NCC[C@H]1CCc2ccc3nc(C)oc3c21`?
Answer: Ki [1]: 23 nM; Ki [2]: 6.1 nM

Question: Which results are given for `CC(=O)NCCC1CCc2ccn3nc(C)c(C)c3c21` (centres undefined)?
Answer: Ki [1]: 9.3 nM; inhibition [6]: < 50%

Question: With `CCC(=O)NCC[C@@H]1CCc2ccc3c(c21)CCO3` [RAMELTEON] as the compound, how does the Ki [7] read?
Answer: Its Ki is 0.014 nM.

Question: And the Ki [8]?
Answer: Its Ki is 0.112 nM.

Question: What about the microsomal CLint at 1 µM [3] of the same compound?
Answer: Its microsomal CLint at 1 µM is 51 µL/min/mg.

Question: And the microsomal CLint at 1 µM [4]?
Answer: Its microsomal CLint at 1 µM is 126 µL/min/mg.

Question: What about the bioavailability [9] of the same compound?
Answer: Its bioavailability is 8.5%.

Question: What about the concentration at 1 h [10] of the same compound?
Answer: The concentration at 1 h was 17 ng/g.

Question: And the concentration at 1 h [11]?
Answer: The concentration at 1 h was 15 ng/mL.

Question: And the Kp at 1 h [12]?
Answer: Its Kp at 1 h is 1.1.

Question: For `CCC(=O)NCCC1CCc2ccn3nc(C)cc3c21` (centres undefined), which Ki [1] is on record?
Answer: Its Ki is 0.17 nM.

Question: What about the Ki [2] of the same compound?
Answer: The Ki was 0.95 nM.

Question: What about the microsomal CLint at 1 µM [3] of the same compound?
Answer: Its microsomal CLint at 1 µM is 20 µL/min/mg.

Question: And the microsomal CLint at 1 µM [4]?
Answer: The microsomal CLint at 1 µM was 84 µL/min/mg.

Question: What does the source list for `CC(=O)NCCC1CCc2ccn3nc(C)cc3c21` (centres undefined)?
Answer: Ki [1]: 0.2 nM; Ki [2]: 1.4 nM; microsomal CLint at 1 µM [3]: 14 µL/min/mg; microsomal CLint at 1 µM [4]: 42 µL/min/mg; bioavailability [5]: 14.3%

Question: With `CCC(=O)NCCC1CCc2ccc3nn(C)cc3c21` (centres undefined) as the compound, how does the Ki [1] read?
Answer: The Ki was 0.3 nM.

Question: And the Ki [2]?
Answer: The Ki was 0.35 nM.

Question: And the microsomal CLint at 1 µM [3]?
Answer: The microsomal CLint at 1 µM was 23 µL/min/mg.

Question: What about the microsomal CLint at 1 µM [4] of the same compound?
Answer: The microsomal CLint at 1 µM was 79 µL/min/mg.

Question: What about the bioavailability [5] of the same compound?
Answer: Its bioavailability is 13.7%.

Question: For `CC(=O)NCCC1CCc2ccc3nc(-c4ccccc4)oc3c21` (centres undefined), which Ki [1] is on record?
Answer: The Ki was 1.3 nM.

Question: And the Ki [2]?
Answer: The Ki was 0.23 nM.

Question: What does the source list for `CCC(=O)NCCC1CCc2ccc3nc(C)oc3c21` (centres undefined)?
Answer: Ki [1]: 0.067 nM; Ki [2]: 0.088 nM; microsomal CLint at 1 µM [3]: 29 µL/min/mg; microsomal CLint at 1 µM [4]: 96 µL/min/mg; bioavailability [5]: 6.8%

Question: For `CCc1nc2ccc3c(c2o1)C(CCNC(C)=O)CC3` (centres undefined), which Ki [1] is on record?
Answer: The Ki was 0.22 nM.

Question: What about the Ki [2] of the same compound?
Answer: Its Ki is 0.16 nM.

Question: Which Ki [1] does the source give for `COc1nc2ccc3c(c2o1)C(CCNC(C)=O)CC3` (centres undefined) here?
Answer: The Ki was 0.45 nM.

Question: And the Ki [2]?
Answer: Its Ki is 0.15 nM.

Question: With `CC(=O)NCCC1CCc2ccc3ncoc3c21` (centres undefined) as the compound, how does the Ki [1] read?
Answer: The Ki was 0.45 nM.

Question: And the Ki [2]?
Answer: The Ki was 0.073 nM.

Question: For `CC(=O)NCCC1CCc2ccc3nc(Cc4ccccc4)oc3c21` (centres undefined), which Ki [1] is on record?
Answer: The Ki was 4.4 nM.

Question: What about the Ki [2] of the same compound?
Answer: Its Ki is 0.12 nM.

Question: Which Ki [1] does the source give for `CC(=O)NCCC1CCc2ccc3nc(C)oc3c21` (racemic) here?
Answer: Its Ki is 0.067 nM.

Question: What about the Ki [2] of the same compound?
Answer: Its Ki is 0.13 nM.

Question: What about the microsomal CLint at 1 µM [4] of the same compound?
Answer: The microsomal CLint at 1 µM was 34 µL/min/mg.

Question: What about the bioavailability [5] of the same compound?
Answer: Its bioavailability is 18.5%.

Question: Which results are given for `CCOC(=O)c1c(C)nn2ccc3c(c12)C(CCNC(C)=O)CC3` (centres undefined)?
Answer: inhibition [13]: < 50%; inhibition [6]: < 50%

Question: Which Ki [1] does the source give for `CC(=O)NCC[C@@H]1CCc2ccc3nc(C)oc3c21` here?
Answer: Its Ki is 0.031 nM.

Question: What about the Ki [2] of the same compound?
Answer: Its Ki is 0.07 nM.

Question: And the concentration at 1 h [14]?
Answer: The concentration at 1 h was 1.4 ng/g.

Question: What about the concentration at 1 h [15] of the same compound?
Answer: Its concentration at 1 h is 2.9 ng/mL.

Question: What about the Kp at 1 h [16] of the same compound?
Answer: Its Kp at 1 h is 0.48.

Question: And the EC50 [17]?
Answer: The EC50 was 0.015 nM.

Question: What about the EC50 [18] of the same compound?
Answer: The EC50 was 0.51 nM.

Question: What about the Activity (Felis catus) of the same compound?
Answer: Its Activity is “Active”.
